Our source for the inhibition values is patent US8106055B2, “Substituted amide compounds” (Gruenenthal GmbH, priority 2007, dated 2012).

Assay [1] addresses T1, bradykinin 1 receptor (B1R) of the rat (Rattus norvegicus, UniProt P97583).
T1 construct: expressed in transfected cells; host or cells: CHO K1 cells
T1 sequence (P97583 1-337): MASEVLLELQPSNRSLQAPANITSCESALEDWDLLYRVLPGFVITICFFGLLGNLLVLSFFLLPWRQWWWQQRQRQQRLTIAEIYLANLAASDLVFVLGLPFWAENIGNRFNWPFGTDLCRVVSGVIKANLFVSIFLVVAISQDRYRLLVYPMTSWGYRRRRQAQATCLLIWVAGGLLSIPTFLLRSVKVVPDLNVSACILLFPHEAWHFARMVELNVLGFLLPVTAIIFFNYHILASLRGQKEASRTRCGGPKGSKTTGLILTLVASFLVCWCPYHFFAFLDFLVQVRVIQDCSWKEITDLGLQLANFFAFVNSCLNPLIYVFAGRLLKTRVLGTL
The experiment in a line: Functional investigation on the rat bradykinin 1 receptor (B1R), Ca2+ FLIPR assay in CHO K1 rB1R cells. The class given is cell-based. The following applies: CHO-K1, B1R antagonism rat; test substance 10 μM; Ca2+ FLIPR, CHO K1 rB1R cells; read-out: B1R Ant. r [10 μM] % Inhibition. Put shortly:
(§1)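 Stably transfected CHO K1 cells loaded with Fluo-4; FLIPR Ca2+ fluorescence peak (ex 488/em 540 nm). Compound added first (agonism vs Lys-Des-Arg9-bradykinin ≥50 nM human, Des-Arg9-bradykinin 10 μM rat), then after 10-20 min agonist at EC80; antagonism as % inhibition, IC50 from concentration series, n=2-3, N≥2.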

Assay [2] addresses T2, human bradykinin 1 receptor (B1R) (Homo sapiens, UniProt P46663).
T2 construct: expressed in transfected cells; host or cells: CHO K1 cells
T2 sequence (P46663 1-353): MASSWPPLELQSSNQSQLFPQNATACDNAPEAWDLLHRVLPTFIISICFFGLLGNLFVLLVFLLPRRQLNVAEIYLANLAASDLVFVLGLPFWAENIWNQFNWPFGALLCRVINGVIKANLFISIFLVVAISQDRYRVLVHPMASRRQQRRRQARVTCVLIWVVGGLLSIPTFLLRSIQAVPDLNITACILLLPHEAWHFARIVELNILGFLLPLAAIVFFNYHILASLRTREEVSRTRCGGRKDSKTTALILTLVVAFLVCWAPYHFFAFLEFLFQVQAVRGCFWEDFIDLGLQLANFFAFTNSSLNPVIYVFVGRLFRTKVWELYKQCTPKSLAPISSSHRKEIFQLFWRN
The assay can be described thus: Functional investigation on the human bradykinin 1 receptor (B1R), Ca2+ FLIPR assay in CHO K1 hB1R cells. The class given is cell-based. Conditions: CHO-K1, B1R antagonism human; test substance 10 μM; Ca2+ FLIPR, CHO K1 hB1R cells; read-out: B1R Ant. h [10 μM] % Inhibition. Put shortly:
as §1

The target in assay [3] is T3, human μ opiate receptor (Homo sapiens, UniProt P35372).
T3 construct: purchased PerkinElmer Life Sciences, Zaventem, Belgium RB-HOM; host or cells: CHO-K1 cells (membrane preparation)
T3 sequence (P35372 whole entry): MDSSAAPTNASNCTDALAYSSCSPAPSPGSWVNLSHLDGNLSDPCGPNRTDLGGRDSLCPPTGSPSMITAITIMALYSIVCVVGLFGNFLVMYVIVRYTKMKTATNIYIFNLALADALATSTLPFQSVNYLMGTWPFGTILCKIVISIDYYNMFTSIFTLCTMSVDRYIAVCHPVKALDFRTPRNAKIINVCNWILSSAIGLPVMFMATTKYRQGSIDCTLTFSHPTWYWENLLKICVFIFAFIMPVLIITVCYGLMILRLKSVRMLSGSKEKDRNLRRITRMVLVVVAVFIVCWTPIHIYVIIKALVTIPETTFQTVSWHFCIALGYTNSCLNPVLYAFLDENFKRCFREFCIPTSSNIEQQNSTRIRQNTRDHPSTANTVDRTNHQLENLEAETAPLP
The experiment in a line: Affinity for the human μ opiate receptor ([3H]-naloxone displacement, CHO-K1 receptor membrane preparation, SPA). The following applies: 1.5 h, Table 3, to be read in the same way as Table 1; test concentration 1 μM; read-out: μ. The class given is binding. The essentials:
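CHO-K1 membranes expressing human μ receptor incubated 90 min at room temperature with 1 nmol/l [3H]-naloxone and WGA-SPA beads in 50 mmol/l Tris-HCl, 0.06% BSA; 100 μmol/l naloxone defines non-specific binding. Values are % inhibition of specific binding at 1 μM; IC50 converted to Ki by Cheng-Prusoff.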

Turning to `COc1cc(C)c(S(=O)(=O)N2CCC(OCC(=O)NCC3CCC(C(c4ccccc4)N4CCCC4)CC3)C2)c(C)c1` (stereo not drawn) [Example 645, 2-(1-(4-methoxy-2,6-dimethylphenylsulfonyl)pyrrolidin-3-yloxy)-N-((4-(phenyl(pyrrolidin-1-yl)methyl)cyclohexyl)methyl)acetamide], the inhibition at 10 µM in assay [1] stood at 100%; in assay [2] it was 101%. Besides, the inhibition at 1 µM in assay [3] was determined as 38%.

Turning to `CN(CCOCC(=O)NCC1CCC(C(c2ccccc2)N2CCCC2)CC1)S(=O)(=O)c1c(Cl)cc(C(F)(F)F)cc1Cl` (stereo not drawn) [Example 646, 2-(2-(2,6-dichloro-N-methyl-4-(trifluoromethyl)phenylsulfonamido)ethoxy)-N-((4-(phenyl(pyrrolidin-1-yl)methyl)cyclohexyl)methyl)acetamide], the inhibition at 10 µM in assay [1] was 15%; in assay [2], 60%. The inhibition at 1 µM in assay [3] stood at 49%.

For `COc1cc(C)c(S(=O)(=O)N2CCCC(OCC(=O)NC3CCC(C(c4ccccc4)N4CCCC4)CC3)C2)c(C)c1` (stereo not drawn) [Example 647, 2-(1-(4-methoxy-2,6-dimethylphenylsulfonyl)piperidin-3-yloxy)-N-(4-(phenyl(pyrrolidin-1-yl)methyl)cyclohexyl)acetamide], the inhibition at 10 µM in assay [1] was found to be 94%; in assay [2], 92%. In addition, the inhibition at 1 µM in assay [3] stood at 49%.

Consider `COc1cc(C)c(S(=O)(=O)N2CCCC(OCC(=O)NCC3CCC(C(c4ccccc4)N4CCCC4)CC3)C2)c(C)c1` (stereo not drawn) [Example 648, 2-(1-(4-methoxy-2,6-dimethylphenylsulfonyl)piperidin-3-yloxy)-N-((4-(phenyl(pyrrolidin-1-yl)methyl)cyclohexyl)methyl)acetamide], for which the inhibition at 10 µM in assay [1] turned out to be 98%; in assay [2] it was 95%. Moreover, the inhibition at 1 µM in assay [3] amounted to 95%.

`COc1cc(C)c(S(=O)(=O)N2CCCC2COCC(=O)NCC2CCC(C(c3ccccc3)N3CCCC3)CC2)c(C)c1` (stereo not drawn) [Example 649, 2-((1-(4-methoxy-2,6-dimethylphenylsulfonyl)pyrrolidin-2-yl)methoxy)-N-((4-(phenyl(pyrrolidin-1-yl)methyl)cyclohexyl)methyl)acetamide]: the inhibition at 10 µM in assay [1] was 106%; in assay [2], 105%. Besides, the inhibition at 1 µM in assay [3] was determined as 67%.

For the compound `O=C(COCC1CCCN1S(=O)(=O)c1c(Cl)cc(Cl)cc1Cl)NC1CCC(C(c2ccccc2)N2CCCC2)CC1` (stereo not drawn) [Example 650, N-(4-(phenyl(pyrrolidin-1-yl)methyl)cyclohexyl)-2-((1-(2,4,6-trichlorophenylsulfonyl)pyrrolidin-2-yl)methoxy)acetamide], the values for the inhibition at 10 µM in assay [1] and in assay [2] were 99% and 96%, respectively. The inhibition at 1 µM in assay [3] came out at 92%.

`O=C(COCC1CCCN1S(=O)(=O)c1c(Cl)cc(Cl)cc1Cl)NCC1CCC(C(c2ccccc2)N2CCCC2)CC1` (stereo not drawn) [Example 651, N-((4-(phenyl(pyrrolidin-1-yl)methyl)cyclohexyl)methyl)-2-((1-(2,4,6-trichlorophenylsulfonyl)pyrrolidin-2-yl)methoxy)acetamide]: the inhibition at 10 µM in assay [1] is 105%; in assay [2], 103%. Also, the inhibition at 1 µM in assay [3] amounted to 83%.

Turning to `COc1cc(C)c(S(=O)(=O)N2CCCCC2COCC(=O)NC2CCC(C(c3ccccc3)N3CCCC3)CC2)c(C)c1` (stereo not drawn) [Example 652, 2-((1-(4-methoxy-2,6-dimethylphenylsulfonyl)piperidin-2-yl)methoxy)-N-(4-(phenyl(pyrrolidin-1-yl)methyl)cyclohexyl)acetamide], the inhibition at 10 µM worked out at 105% in assay [1] and 101% in assay [2]. For the same compound, the inhibition at 1 µM in assay [3] is 70%.

`O=C(COCC1CCCCN1S(=O)(=O)c1c(Cl)cc(Cl)cc1Cl)NC1CCC(C(c2ccccc2)N2CCCC2)CC1` (stereo not drawn) [Example 653, N-(4-(phenyl(pyrrolidin-1-yl)methyl)cyclohexyl)-2-((1-(2,4,6-trichlorophenylsulfonyl)piperidin-2-yl)methoxy)acetamide]: the inhibition at 10 µM in assay [1] amounted to 95%; in assay [2], 101%. Besides, in assay [3], the inhibition at 1 µM worked out at 94%.

On to `COc1cc(C)c(S(=O)(=O)N2CCCC(COCC(=O)NC3CCC(C(c4ccccc4)N4CCCC4)CC3)C2)c(C)c1` (stereo not drawn) [Example 654, 2-((1-(4-methoxy-2,6-dimethylphenylsulfonyl)piperidin-3-yl)methoxy)-N-(4-(phenyl(pyrrolidin-1-yl)methyl)cyclohexyl)acetamide], for which the inhibition at 10 µM in assay [1] was 46%; in assay [2] it was 80%. Moreover, the inhibition at 1 µM in assay [3] is 53%.

For the compound `COc1cc(C)c(S(=O)(=O)N2CCCC(COCC(=O)NCC3CCC(C(c4ccccc4)N4CCCC4)CC3)C2)c(C)c1` (stereo not drawn) [Example 655, 2-((1-(4-methoxy-2,6-dimethylphenylsulfonyl)piperidin-3-yl)methoxy)-N-((4-(phenyl(pyrrolidin-1-yl)methyl)cyclohexyl)methyl)acetamide], the inhibition at 10 µM in assay [1] was found to be 74%; in assay [2], 71%. Also, in assay [3], the inhibition at 1 µM is 38%.

In the case of `O=C(COC1CCCN(S(=O)(=O)c2c(Cl)cc(Cl)cc2Cl)C1)NCC1CCC(C(c2ccccc2)N2CCCC2)CC1` (stereo not drawn) [Example 656, N-((4-(phenyl(pyrrolidin-1-yl)methyl)cyclohexyl)methyl)-2-(1-(2,4,6-trichlorophenylsulfonyl)piperidin-3-yloxy)acetamide], the figures for the inhibition at 10 µM in assay [1] and in assay [2] were 42% and 76%, respectively. In addition, in assay [3], the inhibition at 1 µM is 89%.

Turning to `COc1cc(C)c(S(=O)(=O)N2CCCCC2COCC(=O)NCC2CCC(C(c3ccccc3)N3CCCC3)CC2)c(C)c1` (stereo not drawn) [Example 657, 2-((1-(4-methoxy-2,6-dimethylphenylsulfonyl)piperidin-2-yl)methoxy)-N-((4-(phenyl(pyrrolidin-1-yl)methyl)cyclohexyl)methyl)acetamide], the values for the inhibition at 10 µM in assay [1] and in assay [2] were 105% and 104%, respectively. Moreover, the inhibition at 1 µM in assay [3] amounted to 84%.

As for `O=C(COCC1CCCCN1S(=O)(=O)c1c(Cl)cc(Cl)cc1Cl)NCC1CCC(C(c2ccccc2)N2CCCC2)CC1` (stereo not drawn) [Example 658, N-((4-(phenyl(pyrrolidin-1-yl)methyl)cyclohexyl)methyl)-2-((1-(2,4,6-trichlorophenylsulfonyl)piperidin-2-yl)methoxy)acetamide], the inhibition at 10 µM was 105% in assay [1] and 104% in assay [2]. The inhibition at 1 µM in assay [3] was determined as 88%.

On to `O=C(COCC1CCCN(S(=O)(=O)c2c(Cl)cc(Cl)cc2Cl)C1)NCC1CCC(C(c2ccccc2)N2CCCC2)CC1` (stereo not drawn) [Example 659, N-((4-(phenyl(pyrrolidin-1-yl)methyl)cyclohexyl)methyl)-2-((1-(2,4,6-trichlorophenylsulfonyl)piperidin-3-yl)methoxy)acetamide], for which the inhibition at 10 µM came to 100% in assay [1] and 50% in assay [2]. Besides, the inhibition at 1 µM in assay [3] was found to be 79%.

In the case of `CN(CCOCC(=O)NC1CCC(C(CCc2ccccc2)N2CCOCC2)CC1)S(=O)(=O)c1ccc(Cl)cc1Cl` (stereo not drawn) [Example 660, 2-(2-(2,4-dichloro-N-methylphenylsulfonamido)ethoxy)-N-(4-(1-morpholino-3-phenylpropyl)cyclohexyl)acetamide], the inhibition at 10 µM amounted to 12% in assay [1] and 30% in assay [2]. Besides, in assay [3], the inhibition at 1 µM amounted to 4%.

`CN(CCOCC(=O)NC1CCC(C(CCc2ccccc2)N2CCCCC2)CC1)S(=O)(=O)c1ccc(Cl)cc1Cl` (stereo not drawn) [Example 661, 2-(2-(2,4-dichloro-N-methylphenylsulfonamido)ethoxy)-N-(4-(3-phenyl-1-(piperidin-1-yl)propyl)cyclohexyl)acetamide]: the figures for the inhibition at 10 µM in assay [1] and in assay [2] were 25% and 73%, respectively. The inhibition at 1 µM in assay [3] was 21%.

Turning to `COc1cc(C)c(S(=O)(=O)N(C)CCOCC(=O)NC2CCC(C(CCc3ccccc3)N3CCOCC3)CC2)c(C)c1` (stereo not drawn) [Example 662, 2-(2-(4-methoxy-N,2,6-trimethylphenylsulfonamido)ethoxy)-N-(4-(1-morpholino-3-phenylpropyl)cyclohexyl)acetamide], the inhibition at 10 µM in assay [1] is 101%; in assay [2] it was 104%. Moreover, in assay [3], the inhibition at 1 µM worked out at 3%.
